From ChEMBL document CHEMBL1800070, “Inhibition of a prolyl hydroxylase domain (PHD) by substrate analog peptides” (Bioorg Med Chem Lett, 2011)
Active and inactive are the calls of the source. The calls are words filed in the database; no cut-off is given here.

Experiments:
Egl nine homolog 1 [1] = target: T1, Egl nine homolog 1 (Homo sapiens, UniProt Q9GZT9); test: Inhibition of GST-tagged PHD2 assessed as inhibition of hydroxylation of fluorescein-labeled HIF1alpha CODD peptide at 100 uM after 2 hrs by fluorescent polarization assay in presence of 2-oxoglutarate
Target sequence in this assay (Q9GZT9 2-426 limits assumed): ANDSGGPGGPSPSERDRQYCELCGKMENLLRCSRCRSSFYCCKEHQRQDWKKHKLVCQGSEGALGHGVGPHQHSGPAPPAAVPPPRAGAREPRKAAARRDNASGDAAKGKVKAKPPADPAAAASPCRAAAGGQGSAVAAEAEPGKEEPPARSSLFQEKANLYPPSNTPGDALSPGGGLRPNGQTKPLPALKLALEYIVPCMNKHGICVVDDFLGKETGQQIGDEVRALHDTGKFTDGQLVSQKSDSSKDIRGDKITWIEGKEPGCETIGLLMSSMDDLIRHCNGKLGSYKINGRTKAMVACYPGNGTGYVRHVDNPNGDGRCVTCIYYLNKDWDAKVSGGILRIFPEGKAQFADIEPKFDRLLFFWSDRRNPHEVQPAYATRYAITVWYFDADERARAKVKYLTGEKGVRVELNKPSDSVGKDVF

Egl nine homolog 1 [2] = target: T1, Egl nine homolog 1; test: Inhibition of GST-tagged PHD2 assessed as inhibition of hydroxylation of fluorescein-labeled HIF1alpha CODD peptide after 1 hr by fluorescent polarization assay in presence of 2-oxoglutarate
Target sequence in this assay (Q9GZT9 whole entry): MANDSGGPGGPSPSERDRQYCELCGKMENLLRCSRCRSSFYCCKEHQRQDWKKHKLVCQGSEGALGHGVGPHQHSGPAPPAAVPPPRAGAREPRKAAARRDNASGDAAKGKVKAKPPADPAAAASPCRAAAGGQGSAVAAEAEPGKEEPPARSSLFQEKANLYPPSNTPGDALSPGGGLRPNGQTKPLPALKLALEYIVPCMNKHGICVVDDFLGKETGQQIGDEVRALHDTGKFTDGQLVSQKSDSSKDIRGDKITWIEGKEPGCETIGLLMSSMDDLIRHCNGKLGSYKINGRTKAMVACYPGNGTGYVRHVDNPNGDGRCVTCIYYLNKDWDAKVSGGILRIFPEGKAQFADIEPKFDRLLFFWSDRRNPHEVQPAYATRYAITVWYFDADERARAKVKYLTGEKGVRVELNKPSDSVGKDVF

[3] = target: Hypoxia-inducible factor 1-alpha inhibitor (Homo sapiens) (UniProt Q9NWT6); test: Inhibition of FIH assessed as inhibition of hydroxylation of C-TAD peptide at 100 uM after 2 hrs by fluorescent polarization assay in presence of 2-oxoglutarate
Egl nine homolog 1 [4] = target: T1, Egl nine homolog 1; test: Competitive inhibition of GST-tagged PHD2 active site assessed as inhibition of hydroxylation of fluorescein-labeled HIF1alpha CODD peptide at 100 uM after 2 hrs by fluorescent polarization assay in presence of 2-oxoglutarate
Target sequence in this assay (Q9GZT9 2-426 limits assumed): as the sequence (Q9GZT9 2-426 limits assumed) above

Egl nine homolog 1 [5] = target: T1, Egl nine homolog 1; test: Inhibition of GST-tagged PHD2 assessed as inhibition of hydroxylation of biotinylated HIF1alpha CODD peptide at 100 uM after 20 mins by MALDI-TOF technique in presence of 2-oxoglutarate
Target sequence in this assay (Q9GZT9 2-426 limits assumed): as above

Egl nine homolog 1 [6] = target: T1, Egl nine homolog 1; test: Competitive inhibition of GST-tagged PHD2 active site assessed as inhibition of hydroxylation of fluorescein-labeled HIF1alpha CODD peptide at 200 uM after 2 hrs by fluorescent polarization assay in presence of 2-oxoglutarate
Target sequence in this assay (Q9GZT9 2-426 limits assumed): as above

Egl nine homolog 1 [7] = target: T1, Egl nine homolog 1; test: Inhibition of PHD2 in human HeLa cells assessed as stabilization of HIF1alpha at 100 uM incubated for 6 hrs under normoxic conditions by Western blot analysis relative to control; assay type: cell-based
Target sequence in this assay (Q9GZT9 2-426 limits assumed): as above

Egl nine homolog 1 [8] = target: T1, Egl nine homolog 1; test: Inhibition of PHD2 in human HeLa cells assessed as stabilization of HIF1alpha at 1 mM incubated for 6 hrs under normoxic conditions by Western blot analysis relative to control; assay type: cell-based
Target sequence in this assay (Q9GZT9 2-426 limits assumed): as above

Chain of Hypoxia-inducible factor 1-alpha inhibitor (Homo sapiens) (Q9NWT6 whole entry): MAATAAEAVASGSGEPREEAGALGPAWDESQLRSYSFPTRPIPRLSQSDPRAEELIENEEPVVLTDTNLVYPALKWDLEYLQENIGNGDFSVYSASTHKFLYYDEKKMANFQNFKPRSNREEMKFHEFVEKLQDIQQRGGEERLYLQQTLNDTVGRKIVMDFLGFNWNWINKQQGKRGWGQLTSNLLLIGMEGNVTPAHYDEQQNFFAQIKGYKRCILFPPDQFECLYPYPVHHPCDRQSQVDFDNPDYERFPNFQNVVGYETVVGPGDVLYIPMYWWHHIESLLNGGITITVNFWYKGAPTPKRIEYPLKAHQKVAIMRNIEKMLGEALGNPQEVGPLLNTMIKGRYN

O=C(O)[C@@H]1CC(=S)CN1 was tested, and the inhibition (Egl nine homolog 1 [1]) was “Active”, the IC50 (Egl nine homolog 1 [2]) was 69.7 µM and the inhibition [3] was “Active”. For the same molecule, the inhibition (Egl nine homolog 1 [4]) was “inactive” and the “inhibition (active/inactive call)” value (Egl nine homolog 1 [5]) was “Active”.
In the case of O=c1cc(-c2ccccc2)oc2cc(O)c(O)c(O)c12, the inhibition [3] is reported as “Active”, the inhibition (Egl nine homolog 1 [6]) is reported as “Active” and the Activity (Egl nine homolog 1 [7]) is reported as “Active”.
With O=C(O)[C@@H]1C=CCN1 the inhibition (Egl nine homolog 1 [1]) was “Active”, the IC50 (Egl nine homolog 1 [2]) was 8.5 µM and the inhibition [3] was “Active”. The inhibition (Egl nine homolog 1 [4]) was “inactive”, the “inhibition (active/inactive call)” value (Egl nine homolog 1 [5]) was “Active” and the Activity (Egl nine homolog 1 [8]) was “Active”.
With O=C(O)[C@@H]1C[C@@H](O)CN1 the “inhibition (active/inactive call)” value (Egl nine homolog 1 [5]) was “inactive”.
With O=C(O)[C@@H]1C[C@@H](F)CN1 the “inhibition (active/inactive call)” value (Egl nine homolog 1 [5]) was “inactive”.
